Results from US20230381275A1, “MUSCULAR FUNCTION IMPROVING AGENT FOR SKELETAL MUSCLE OF WHICH FUNCTION IS DEGRADED DUE TO AGING” (OSAKA UNIVERSITY, priority 2020, published 2023).

Columns and labels:
[1] = test system: aging-accelerated model mice (SAMP10); assay: Number of collisions on treadmill retest 12, 24 or 72 hours after local injection (Example 2); format: in vivo; details: SAMP10 36 weeks old, SV peptide total 40 ng into bilateral lower limb muscles, vs PBS control, FIG. 2
Method: In this example, SV peptide was administered to aging-accelerated model mice, and the recovery effect of muscle function after a certain period of time by the administration was confirmed.
Treadmill running was performed using aging-accelerated model mice (SAMP10 36 weeks old) under the same conditions as the first basic training of 35-week-old mice in Example 1, and SV peptide (total 40 ng) was injected into the bilateral lower limb muscles immediately after treadmill running (experimental group).
SV peptide was administered at the same site and dose as in the 35-week-old mice of Example 1. The number of collisions was evaluated by retesting treadmill running (18 m/min×90 min) at 12, 24, or 72 hours after local injection. In the control group, after treadmill running as in the experimental group, PBS was injected into the bilateral leg muscles instead of SV peptide, and the number of collisions on the treadmill was measured 12, 24, or 72 hours after the injection.

[2] = test system: aging-accelerated model mice (SAMP10); assay: Endurance evaluation test on treadmill, mean running distance (Example 4); format: in vivo
Method: In this example, we evaluated exercise in aging-accelerated model mice when SV peptide was administered continuously.
Aging-accelerated model mice (SAMP10 28 weeks old) were trained on a treadmill (MK-680; Muromachi Kikai Co., Ltd.) (18 m/min×90 min) and subsequent SV peptide administration was performed according to the schedule in the following table. After 30 weeks of age, training was performed continuously from Monday to Friday of each week. SV peptides were added to PBS to adjust to a concentration of 1 μg/ml or 20 ng/ml for injection formulation. Localized injections were made into the bilateral leg muscles of each mouse anesthetized by inhalation with sevoflurane immediately after training on Tuesday and Friday (SV group). Exercise evaluations were performed after SV peptide localization on Friday.
Exercise evaluations were conducted for endurance evaluation, in which the belt speed on the treadmill was increased incrementally at regular intervals, and for slope-up evaluation, in which the belt incline was increased incrementally at regular intervals. […] In the PBS group as the control group, PBS was localized to the bilateral lower limb muscles instead of SV peptide after training on the treadmill in the same manner as in the SV group.
The results of the endurance evaluation test are shown in FIG. 5 as a graph of the percent change in mean running distance. […] The mean running distance for each group was calculated as the mean value of running distance calculated based on the running time and speed of each mouse in each group (the mean distance was calculated in the same manner hereinafter). […] In the SVN group (SVN group) in which SV peptide was administered at the same site and at the same dose as in the SV group without training on the treadmill, the rate of change in mean running distance was measured.

[3] = relative to SVVYGLR (SEQ ID NO.: 1); earlier work of the inventors; cited from earlier work
[4] = test system: aging-accelerated model mice (SAMP10); assay: Number of collisions during treadmill running, weekly test (Example 1); format: in vivo; details: after 30 weeks of age (tested to 35 weeks), SV peptide 20 ng/ml injected into bilateral lower limb muscles after treadmill training, vs PBS control group, FIG. 1
Method: In this example, a peptide consisting of the amino acid sequence of SVVYGLR (SEQ ID No.: 1) (SV peptide) was administered to aging-accelerated model mice, and their effects on restoring muscle function were confirmed.
SV peptide was synthesized by the Fmoc method using a multi-species solid-phase automated peptide synthesizer (PSSM-8; Shimadzu Corp.) SV peptide was added to PBS and adjusted to 20 ng/ml to prepare an injection formulation.
Aging-accelerated model mice (SAMP10 21 weeks old) were used to perform training on a treadmill (MK-680; Muromachi Kikai Co., Ltd.) and subsequent SV peptide administration according to the schedule in the following table. […]
Once a week, the mice were tested on a treadmill to measure the number of collisions. After SV peptide injection, the mice have trained on the treadmill again (18 m/min×90 min), and the number of times the mice collided with the treadmill wall due to being unable to run at a speed equal to or faster than that of the belt was measured during treadmill training. […] In the control group, after training on the treadmill in the same manner as the experimental group, PBS was injected into the bilateral lower limb muscles instead of SV peptide, and the number of collisions was measured once a week.

[5] = test system: aging-accelerated model mice; assay: Endurance evaluation test on treadmill (Example 6); format: in vivo; details: SV group, SV peptide 2 μg/ml one dose every other week plus training
Method: In this example, the number of SV peptide doses and dosage in Example 4 was changed as shown in the following table, and exercise evaluation (endurance evaluation) was performed when SV peptide was continuously administered to aging-accelerated model mice. The conditions other than the number of SV peptide doses and dosage were the same as in Example 4.
Specifically, SV peptide was added to PBS to adjust to a concentration of 2 μg/ml for the injectable formulation, and localized to the bilateral lower limb muscles of each mouse anesthetized by inhalation with sevoflurane immediately after training on Friday every other week (even weeks) (SV group; one dose every other week).
The results of the endurance evaluation test are shown in FIG. 12 with a graph showing the mean running distance for the SV group (n=3) and the PBS group (n=4). A graph showing the difference between the mean running distance on the reference date (30 weeks old) and the mean running distance in each test is also shown in FIG. 13.

SVVYGLR [SV peptide, peptide consisting of 7 amino acids (SVVYGLR]
number of collisions during treadmill running ([1]; 12 hours after local injection): significantly reduced | number of collisions during treadmill running ([1]; 24 hours after local injection): significantly reduced | number of collisions during treadmill running ([1]; 72 hours after local injection): significantly reduced | mean running distance compared to the reference date ([2]; SV group (training and SV peptide), during the measurement period, reference date 30 weeks): increased compared to that at the reference date | rate of change of the mean running distance ([2]; SV group (training performed and SV peptide injected, 1 μg/ml or 20 ng/ml, 2 times/W), mean running distance at 30 weeks (reference date) = 100%, FIG. 5): about 130% | mean running distance over time ([2]; SVN group: SV peptide at same site and dose without training on the treadmill, not shown in the figure): decreased over time | rate of change in mean running distance ([2]; SVN group: SV peptide without training on the treadmill, since the reference date (30 weeks = 100%)): ≤ 100% | angiogenic effect [3]: promoting angiogenesis | number of collisions during treadmill running [4]: significant suppression of the increase in the number of collisions compared to the control group | mean running distance ([5]; after 49 weeks of age): able to maintain the same mean running distance as the 30-week-old group | mean running distance ([5]; from 31 to 48 weeks of age, FIGS. 12 and 13): increased significantly
